Data: patent US20210392892A1, “COMPOSITIONS COMPRISING PYRIDINE CARBOXYLATE HERBICIDES AND ACETYL COA CARBOXYLASE (ACCASE) INHIBITOR HERBICIDES” (Corteva Agriscience LLC, priority 2018, published 2021)

Experiments:
Assay in all cases: Greenhouse postemergence herbicidal effect (visual injury)
Type in all cases: in vivo
[1] = system: LOLMG, Lolium multiflorum subsp. gaudini (annual ryegrass)
Text: (§1) Seeds of the desired test plant species were planted in a 90:10% v/v (volume/volume) mixture of PRO-MIX® BX (Premier Tech Horticulture, Quakertown, Pa., USA) and PROFILE® GREENS GRADE™ (Profile Products LLC, Buffalo Grove, Ill., USA) planting mixture, which typically has a pH of 5.2 to 6.2 and an organic matter content of at least 50 percent, in plastic pots with a surface area of 103.2 square centimeters (cm^2). In some aspects, to help ensure good germination and healthy plants, a fungicide treatment and/or other chemical or physical treatment was applied. The plants were grown for 7-36 days (d) in a greenhouse with an approximate 14-hour (h) photoperiod which was maintained at about 23° C. during the day and 22° C. during the night. Nutrients and water were added on a regular basis and supplemental lighting was provided with overhead metal halide 1000-Watt lamps as necessary. The plants were employed for testing when they reached the second or third true leaf stage.
(§2) Emulsifiable concentrates of each of each pyridine carboxylate herbicide (Compound A or Compound B) were prepared at 100 grams acid equivalent per liter (g ae/L). The emulsifiable concentrates also included a safener, cloquintocet-mexyl, at 120 grams active ingredient per liter (g ai/L), unless otherwise noted below. An aliquot of each emulsifiable concentrate was placed in a 25 mL glass vial and diluted with an aqueous mixture of 1.25% (v/v) ACTIROB® B esterified rapeseed oil (Bayer Crop Science, Research Triangle Park, N.C., USA) or MSO® Concentrate with LECI-TECH® methylated soybean oil (Loveland Products, Loveland, Colo., USA) to obtain concentrated stock solutions at the highest application rate for each herbicide, based upon a 12 milliliter (mL) application volume at a rate of 187 liters per hectare (L/ha). The concentrated stock solutions were further diluted with an aqueous mixture of 1.25% v/v ACTIROB® B or MSO® Concentrate with LECI-TECH® to obtain stock solutions at reduced application rates for each herbicide. Spray solutions of the herbicide combinations (Compound A or Compound B plus ACCase inhibitor herbicide) were prepared by adding weighed amounts or aliquots of the ACCase inhibitor herbicide to the stock solutions of Compound A or Compound B to form 12-mL spray solutions in two-way combinations.
(§3) The spray solutions were applied to the plant material with an overhead Mandel track sprayer equipped with 8002E nozzles calibrated to deliver 187 L/ha over an application area of 0.503 square meters (m^2) at a spray height of 18 inches (43 centimeters (cm)) above the average plant canopy. Control plants were sprayed in the same manner with the solvent blank. All pyridine carboxylate herbicide (component a) application rates are given as “g ae/ha” and all ACCase inhibitor herbicide (component b) application rates are given as “g ai/ha.”
(§4) The treated plants and control plants were placed in a greenhouse as described above and watered by sub-irrigation to prevent wash-off of the test compounds. After 20-22 d, the condition of the test plants as compared with that of the control plants was determined visually and scored on a scale of 0 to 100 percent where 0 corresponds to no injury and 100 corresponds to complete kill.

[2] = system: ZEAMX, Zea mays (maize)
Text: as §1, §2, §3, §4

[3] = system: SETFA, Setaria faberi (giant foxtail)
Text: as §1, §2, §3, §4

[4] = system: ORYSA, Oryza sativa (common rice)
Text: as §1, §2, §3, §4

[5] = system: LEFCH, Leptochloa chinensis (Chinese sprangletop)
Text: as §1, §2, §3, §4

[6] = system: VIOTR, Viola tricolor (wild pansy)
Text: as §1, §2, §3, §4

[7] = system: ABUTH, Abutilon theophrasti (velvetleaf)
Text: as §1, §2, §3, §4

[8] = system: GLXMA, Glycine max (soybean)
Text: as §1, §2, §3, §4

[9] = system: RUMOB, Rumex obtusifolius (broad-leaf dock)
Text: as §1, §2, §3, §4

[10] = system: STEME, Stellaria media (chickweed)
Text: as §1, §2, §3, §4

[11] = system: CIRAR, Cirsium arvense (Canadian thistle)
Text: as §1, §2, §3, §4

[12] = system: SORVU, Sorghum vulgare (grain sorghum)
Text: as §1, §2, §3, §4

[13] = system: HELAN, Helianthus annuus (common sunflower)
Text: as §1, §2, §3, §4

[14] = system: IPOHE, Ipomoea hederacea (ivyleaf morningglory)
Text: as §1, §2, §3, §4

[15] = system: POLCO, Polygonum convolvulus (wild buckwheat)
Text: as §1, §2, §3, §4

[16] = system: KCHSC, Kochia scoparia (kochia)
Text: as §1, §2, §3, §4

[17] = system: BRSNW, Brassica napus (winter rape)
Text: as §1, §2, §3, §4

[18] = system: BRSNN, Brassica napus (spring rape); conditions: 70 g ai/ha
Text: as §1, §2, §3, §4

[19] = system: AVEFA, Avena fatua (wild oat)
Text: as §1, §2, §3, §4

[20] = system: CYPES, Cyperus esculentus (nutsedge)
Text: as §1, §2, §3, §4

[21] = system: DIGSA, Digitaria sanguinalis (large crabgrass)
Text: as §1, §2, §3, §4

[22] = system: ALOMY, Alopecurus myosuroides (blackgrass)
Text: as §1, §2, §3, §4

[23] = system: LOLMU, Lolium multiflorum (Italian ryegrass)
Text: as §1, §2, §3, §4

[24] = system: ECHCG, Echinochloa crus-galli (barnyardgrass)
Text: as §1, §2, §3, §4

Q: For `C#CCOC(=O)[C@@H](C)Oc1ccc(Oc2ncc(Cl)cc2F)cc1`, which “% visual injury, Obs” value ([1]; 30 g ai/ha) is on record?
A: 15%

Q: What about the “% visual injury, Obs” value ([2]; 30 g ai/ha) of the same molecule?
A: 90%

Q: What about the “% visual injury, Obs” value ([3]; 30 g ai/ha) of the same molecule?
A: 98%

Q: And the “% visual injury, Obs” value ([4]; 30 g ai/ha)?
A: 83%

Q: Which “% visual injury, Obs” value ([5]; 70 g ai/ha) does the source give for `CCSC(C)CC1CC(=O)C(C(CC)=NOC/C=C/Cl)=C(O)C1` (stereo not shown) [Clethodim, reference compound] here?
A: 95%

Q: What about the “% visual injury, Obs” value ([6]; 70 g ai/ha) of the same molecule?
A: 0%

Q: What about the “% visual injury, Obs” value ([7]; 70 g ai/ha) of the same molecule?
A: 0%

Q: What about the “% visual injury, Obs” value ([8]; 70 g ai/ha) of the same molecule?
A: 5%

Q: And the “% visual injury, Obs” value ([9]; 70 g ai/ha)?
A: 0%

Q: And the “% visual injury, Obs” value ([10]; 70 g ai/ha)?
A: 0%

Q: What about the “% visual injury, Obs” value ([11]; 70 g ai/ha) of the same molecule?
A: 0%

Q: And the “% visual injury, Obs” value ([12]; 70 g ai/ha)?
A: 98%

Q: And the “% visual injury, Obs” value ([3]; 70 g ai/ha)?
A: 90%

Q: And the “% visual injury, Obs” value ([13]; 70 g ai/ha)?
A: 0%

Q: And the “% visual injury, Obs” value ([14]; 70 g ai/ha)?
A: 0%

Q: And the “% visual injury, Obs” value ([15]; 70 g ai/ha)?
A: 0%

Q: And the “% visual injury, Obs” value ([16]; 70 g ai/ha)?
A: 0%

Q: What about the “% visual injury, Obs” value ([17]; 70 g ai/ha) of the same molecule?
A: 0%

Q: How did the “% visual injury, Obs” value ([12]; 7.5 g ae/ha, with cloquintocet-mexyl) turn out when `C#CCOC(=O)c1nc(-c2ccc3cc[nH]c3c2F)c(F)c(N)c1Cl` [Compound B, propargyl 4-amino-3-chloro-5-fluoro-6-(7-fluoro-1H-indol-6-yl)pyridine-2-carboxylate] was run?
A: 10%

Q: And the “% visual injury, Obs” value ([12]; 10 g ae/ha, with cloquintocet-mexyl)?
A: 20%

Q: What does the source list for `COC(=O)[C@@H](C)Oc1ccc(Oc2ncc(C(F)(F)F)cc2Cl)cc1` [Haloxyfop-R-methyl, reference compound]?
A: % visual injury, Obs ([5]; LEFCH, Compound A 0 g/ha, Haloxyfop-R-methyl 70 g/ha): 100%; % visual injury, Obs ([3]; SETFA, Compound A 0 g/ha, Haloxyfop-R-methyl 70 g/ha): 100%

Q: Which results are given for `CCc1cc(C)cc(CC)c1-c1c(OC(=O)C(C)(C)C)n2n(c1=O)CCOCC2` [Pinoxaden]?
A: % visual injury, Obs ([1]; 30 g ai/ha): 94%; % visual injury, Obs ([2]; 30 g ai/ha): 5%; % visual injury, Obs ([3]; 30 g ai/ha): 10%; % visual injury, Obs ([4]; 30 g ai/ha): 99%

Q: Which “% visual injury, Obs” value ([5]; LEFCH, Compound A 0 g/ha, Quizalofop-P-ethyl 75 g/ha) does the source give for `CCOC(=O)[C@@H](C)Oc1ccc(Oc2cnc3cc(Cl)ccc3n2)cc1` [Quizalofop-P-ethyl, reference compound] here?
A: 100%

Q: And the “% visual injury, Obs” value ([3]; SETFA, Compound A 0 g/ha, Quizalofop-P-ethyl 75 g/ha)?
A: 100%

Q: Which results are given for `CCCC(=NOCC)C1=C(O)CC(CC(C)SCC)CC1=O` (stereo not shown) [Sethoxydim, reference compound]?
A: % visual injury, Obs ([9]; 70 g ai/ha): 0%; % visual injury, Obs ([10]; 70 g ai/ha): 0%; % visual injury, Obs ([16]; 70 g ai/ha): 0%; % visual injury, Obs [18]: 0%

Q: With `CCON=C(CC)C1=C(O)CC(c2c(C)cc(C)cc2C)CC1=O` (stereo not shown) [Tralkoxydim, 2-[1-(ethoxyimino)propyl]-3-hydroxy-5-mesitylcyclohex-2-enone] as the molecule, how does the “% visual injury, Obs” value ([1]; 100 g ai/ha) read?
A: 70%

Q: And the “% visual injury, Obs” value ([12]; 100 g ai/ha)?
A: 65%

Q: What about the “% visual injury, Obs” value ([3]; 100 g ai/ha) of the same molecule?
A: 40%

Q: How did the “% visual injury, Obs” value ([1]; 46 g ai/ha) turn out when Fenoxaprop was run?
A: 0%

Q: What about the “% visual injury, Obs” value ([19]; 46 g ai/ha) of the same molecule?
A: 68%

Q: What about the “% visual injury, Obs” value ([20]; 46 g ai/ha) of the same molecule?
A: 0%

Q: And the “% visual injury, Obs” value ([2]; 46 g ai/ha)?
A: 100%

Q: What about the “% visual injury, Obs” value ([21]; 46 g ai/ha) of the same molecule?
A: 96%

Q: What about the “% visual injury, Obs” value ([3]; 46 g ai/ha) of the same molecule?
A: 100%

Q: And the “% visual injury, Obs” value ([22]; 46 g ai/ha)?
A: 0%

Q: What about the “% visual injury, Obs” value ([23]; 46 g ai/ha) of the same molecule?
A: 5%

Q: And the “% visual injury, Obs” value ([24]; 46 g ai/ha)?
A: 100%

Q: What about the “% visual injury, Obs” value ([4]; 46 g ai/ha) of the same molecule?
A: 35%

Q: Which results are given for Fluazifop [reference compound]?
A: % visual injury, Obs ([5]; 105 g ai/ha): 100%; % visual injury, Obs ([5]; LEFCH, Compound A 0 g/ha, Fluazifop 105 g/ha): 98%; % visual injury, Obs ([6]; VIOTR, Compound A 0 g/ha, Fluazifop 105 g/ha): 3%; % visual injury, Obs ([19]; 105 g ai/ha): 93%; % visual injury, Obs ([19]; AVEFA, Compound A 0 g/ha, Fluazifop 105 g/ha): 95%; % visual injury, Obs ([7]; ABUTH, Compound A 0 g/ha, Fluazifop 105 g/ha): 0%; % visual injury, Obs ([8]; GLXMA, Compound A 0 g/ha, Fluazifop 105 g/ha): 28%; % visual injury, Obs ([20]; 105 g ai/ha): 5%; % visual injury, Obs ([20]; CYPES, Compound A 0 g/ha, Fluazifop 105 g/ha): 0%; % visual injury, Obs ([9]; RUMOB, Compound A 0 g/ha, Fluazifop 105 g/ha): 0%; % visual injury, Obs ([10]; STEME, Compound A 0 g/ha, Fluazifop 105 g/ha): 0%; % visual injury, Obs ([11]; CIRAR, Compound A 0 g/ha, Fluazifop 105 g/ha): 5%; % visual injury, Obs ([21]; 105 g ai/ha): 95%; % visual injury, Obs ([21]; DIGSA, Compound A 0 g/ha, Fluazifop 105 g/ha): 95%; % visual injury, Obs ([12]; SORVU, Compound A 0 g/ha, Fluazifop 105 g/ha): 100%; % visual injury, Obs ([3]; 105 g ai/ha): 90%; % visual injury, Obs ([3]; SETFA, Compound A 0 g/ha, Fluazifop 105 g/ha): 85%; % visual injury, Obs ([22]; 105 g ai/ha): 93%; % visual injury, Obs ([22]; ALOMY, Compound A 0 g/ha, Fluazifop 105 g/ha): 85%; % visual injury, Obs ([13]; HELAN, Compound A 0 g/ha, Fluazifop 105 g/ha): 0%; % visual injury, Obs ([23]; 105 g ai/ha): 80%; % visual injury, Obs ([23]; LOLMU, Compound A 0 g/ha, Fluazifop 105 g/ha): 88%; % visual injury, Obs ([24]; 105 g ai/ha): 95%; % visual injury, Obs ([24]; ECHCG, Compound A 0 g/ha, Fluazifop 105 g/ha): 95%; % visual injury, Obs ([14]; IPOHE, Compound A 0 g/ha, Fluazifop 105 g/ha): 0%; % visual injury, Obs ([15]; POLCO, Compound A 0 g/ha, Fluazifop 105 g/ha): 0%; % visual injury, Obs ([16]; KCHSC, Compound A 0 g/ha, Fluazifop 105 g/ha): 0%; % visual injury, Obs ([17]; BRSNW, Compound A 0 g/ha, Fluazifop 105 g/ha): 0%
